Six compounds from US20240208992A1, “MACROCYCLES AS CFTR MODULATORS” (Idorsia Pharmaceuticals Ltd, priority 2021, published 2024) can be followed below.

In the test the target is human F508del-CFTR (Homo sapiens, UniProt P13569, DEL508-508). As to the kind of experiment: F508del-CFTR cell surface expression (corrector activity), DiscoveRx ß-galactosidase complementation chemiluminescence assay in recombinant U2OS cell line.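 For all read-outs here: U2OS cells co-expressing ProLink-tagged F508del-CFTR and a membrane-anchored enzyme acceptor, where more surface CFTR restores β-galactosidase activity measured by chemiluminescence.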 Particulars: U2OS cell line, 16h compound incubation; for EC50: EC50, F508del-CFTR cell surface expression, geomean values; for Emax: U2OS, in relation to the Emax of the corrector lumacaftor (=100%), arithmetic mean values.
Chain of human F508del-CFTR (P13569 with tags, fused parts or gaps DEL508-508): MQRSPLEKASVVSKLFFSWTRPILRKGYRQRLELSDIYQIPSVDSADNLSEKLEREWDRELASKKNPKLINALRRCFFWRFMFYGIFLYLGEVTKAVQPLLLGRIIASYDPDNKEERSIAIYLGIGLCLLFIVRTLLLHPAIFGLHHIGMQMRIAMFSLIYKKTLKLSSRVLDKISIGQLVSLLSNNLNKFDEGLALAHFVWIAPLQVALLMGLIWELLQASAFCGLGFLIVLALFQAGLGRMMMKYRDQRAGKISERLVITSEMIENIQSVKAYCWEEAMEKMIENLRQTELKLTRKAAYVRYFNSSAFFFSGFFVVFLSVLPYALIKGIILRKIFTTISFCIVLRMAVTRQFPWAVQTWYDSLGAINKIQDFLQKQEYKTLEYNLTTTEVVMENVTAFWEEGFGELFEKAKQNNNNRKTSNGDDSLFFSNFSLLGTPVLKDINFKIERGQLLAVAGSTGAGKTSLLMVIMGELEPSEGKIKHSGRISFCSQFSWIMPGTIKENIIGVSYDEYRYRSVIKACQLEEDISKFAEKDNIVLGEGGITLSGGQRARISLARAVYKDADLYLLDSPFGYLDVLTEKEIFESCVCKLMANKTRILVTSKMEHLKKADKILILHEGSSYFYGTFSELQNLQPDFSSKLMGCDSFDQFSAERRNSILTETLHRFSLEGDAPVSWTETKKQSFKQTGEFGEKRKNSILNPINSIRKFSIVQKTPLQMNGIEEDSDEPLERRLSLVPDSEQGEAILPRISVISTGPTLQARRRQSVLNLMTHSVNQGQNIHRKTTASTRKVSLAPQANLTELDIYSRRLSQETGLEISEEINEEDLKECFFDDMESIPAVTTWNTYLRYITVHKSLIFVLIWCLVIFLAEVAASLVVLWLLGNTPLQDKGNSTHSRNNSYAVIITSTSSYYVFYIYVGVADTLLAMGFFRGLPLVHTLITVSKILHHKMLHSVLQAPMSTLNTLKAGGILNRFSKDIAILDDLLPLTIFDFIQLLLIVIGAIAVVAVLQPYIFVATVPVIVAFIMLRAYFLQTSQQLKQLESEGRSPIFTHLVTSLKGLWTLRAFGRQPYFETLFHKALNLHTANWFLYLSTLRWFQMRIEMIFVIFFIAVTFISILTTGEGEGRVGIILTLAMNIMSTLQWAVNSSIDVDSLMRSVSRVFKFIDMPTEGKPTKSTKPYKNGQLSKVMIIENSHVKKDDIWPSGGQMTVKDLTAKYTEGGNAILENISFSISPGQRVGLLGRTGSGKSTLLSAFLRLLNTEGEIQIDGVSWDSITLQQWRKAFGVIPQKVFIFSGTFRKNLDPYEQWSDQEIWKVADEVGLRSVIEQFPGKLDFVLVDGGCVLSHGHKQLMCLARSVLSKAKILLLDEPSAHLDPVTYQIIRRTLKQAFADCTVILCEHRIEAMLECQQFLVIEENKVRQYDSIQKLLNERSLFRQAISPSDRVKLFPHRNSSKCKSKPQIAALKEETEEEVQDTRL

Consider `CC(C)C[C@H]1C(=O)N(C)C2(CC2)C(=O)N[C@H](Cc2ccccc2)COc2cnc3ccc(F)cc3c2C(=O)N[C@H](C(=O)NCCc2cccc(C#N)c2)CC(=O)N1C` [Example 168, (3′S,7′S,13′R)-13′-benzyl-N-(3-cyanophenethyl)-20′-fluoro-7′-isobutyl-6′,9′-dimethyl-1′,5′,8′,11′-tetraoxo-2′,3′,4′,5′,6′,7′,8′,9′,11′,12′,13′,14′-dodecahydro-1′H-spiro[cyclopropane-1,10′-[1]oxa[4,7,10,14]tetraazacycloheptadecino[17,16-c]quinoline]-3′-carboxamide], for which the EC50 amounted to 338 nM and the Emax amounted to 193%.
For the compound `CC(C)C[C@H]1C(=O)N(C)C2(CC2)C(=O)N[C@H](Cc2ccccc2)COc2cnc3ccc(F)cc3c2C(=O)N[C@H](C(=O)NCCc2cccc(C(F)(F)F)c2)CC(=O)N1C` [Example 169, (3′S,7′S,13′R)-13′-benzyl-20′-fluoro-7′-isobutyl-6′,9′-dimethyl-1′,5′,8′,11′-tetraoxo-N-(3-(trifluoromethyl)phenethyl)-2′,3′,4′,5′,6′,7′,8′,9′,11′,12′,13′,14′-dodecahydro-1′H-spiro[cyclopropane-1,10′-[1]oxa[4,7,10,14]tetraazacycloheptadecino[17,16-c]quinoline]-3′-carboxamide], the EC50 came out at 334 nM and the Emax was 170%.
Consider `CC(C)C[C@H]1C(=O)N(C)C2(CC2)C(=O)N[C@H](Cc2ccccc2)COc2cnc3ccc(F)cc3c2C(=O)N[C@H](C(=O)NCCc2ccc(N3CCOCC3)cc2)CC(=O)N1C` [Example 170, (3′S,7′S,13′R)-13′-benzyl-20′-fluoro-7′-isobutyl-6′,9′-dimethyl-N-(4-morpholinophenethyl)-1′,5′,8′,11′-tetraoxo-2′,3′,4′,5′,6′,7′,8′,9′,11′,12′,13′,14′-dodecahydro-1′H-spiro[cyclopropane-1,10′-[1]oxa[4,7,10,14]tetraazacycloheptadecino[17,16-c]quinoline]-3′-carboxamide], for which the EC50 came to 329 nM and the Emax was 267%.
The matching figures for `CC(C)C[C@H]1C(=O)N2CCCC[C@@H]2C(=O)N[C@H](Cc2ccccc2)COc2cnc3ccc(F)cc3c2C(=O)N[C@H](C(=O)NCCc2noc(C(C)C)n2)CC(=O)N1C` [Example 171, (9S,13S,19aR,22R)-22-benzyl-5-fluoro-13-isobutyl-N-(2-(5-isopropyl-1,2,4-oxadiazol-3-yl)ethyl)-12-methyl-7,11,14,20-tetraoxo-7,8,9,10,11,12,13,14,17,18,19,19a,20,21,22,23-hexadecahydro-16H-pyrido[2′,1′:6,7][1]oxa[4,7,10,14]tetraazacycloheptadecino[17,16-c]quinoline-9-carboxamide]: 144 nM and 301%.
Consider `CC(C)C[C@H]1C(=O)N(C)C2(CC2)C(=O)N[C@H](Cc2ccccc2)COc2cnc3ccc(F)cc3c2C(=O)N[C@H](C(=O)NCCn2cc(C3CC3)cn2)CC(=O)N1C` [Example 172, (3′S,7′S,13′R)-13′-benzyl-N-(2-(4-cyclopropyl-1H-pyrazol-1-yl)ethyl)-20′-fluoro-7′-isobutyl-6′,9′-dimethyl-1′,5′,8′,11′-tetraoxo-2′,3′,4′,5′,6′,7′,8′,9′,11′,12′,13′,14′-dodecahydro-1′H-spiro[cyclopropane-1,10′-[1]oxa[4,7,10,14]tetraazacycloheptadecino[17,16-c]quinoline]-3′-carboxamide], for which the half-maximal effective concentration (EC50) worked out at 324 nM and the Emax stood at 213%.
The matching figures for `CC(C)C[C@H]1C(=O)N(C)C2(CC2)C(=O)N[C@H](Cc2ccccc2)COc2cnc3ccc(F)cc3c2C(=O)N[C@H](C(=O)NCCn2cc(Br)cn2)CC(=O)N1C` [Example 173, (3′S,7′S,13′R)-13′-benzyl-N-(2-(4-bromo-1H-pyrazol-1-yl)ethyl)-20′-fluoro-7′-isobutyl-6′,9′-dimethyl-1′,5′,8′,11′-tetraoxo-2′,3′,4′,5′,6′,7′,8′,9′,11′,12′,13′,14′-dodecahydro-1′H-spiro[cyclopropane-1,10′-[1]oxa[4,7,10,14]tetraazacycloheptadecino[17,16-c]quinoline]-3′-carboxamide]: 455 nM and 212%.
